From US20240174690A1, “ANNULATED 2-AMINO-3-CYANO THIOPHENES AND DERIVATIVES FOR THE TREATMENT OF CANCER” (BOEHRINGER INGELHEIM INTERNATIONAL GMBH, priority 2021, published 2024)
In brackets after ≈: the same amount, converted by molar mass. Read-outs that look alike come from different tables or passages of the source.

Columns and labels:
[1] = system: KRAS G12C-dependent Ba/F3 cells; assay: Ba/F3 proliferation assay, KRAS G12C; assay type: cell-based; settings: Mus musculus, BaF3, 72 h, AlamarBlue
Outline: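 Ba/F3 cells retrovirally transduced with KRAS G12 mutants, puromycin-selected and grown without IL-3, so proliferation depends on the mutant KRAS. Compounds tested in technical duplicates; viability read by AlamarBlue fluorescence, with curve fitting for potency.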

NCI-H358 cells = assay: NCI-H358 CTG proliferation assay (120 h) (NSCLC, G12C); assay type: cell-based, human; settings: Homo sapiens
Outline: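 NCI-H358 cells (KRAS G12C) were seeded at 2000/well (assay 1) or 200/well (assay 2) in RPMI-1640 + 10% FCS and dosed with a logarithmic series, DMSO-normalized. After 120 h, viability was read by CellTiter-Glo luminescence as percent of DMSO control, with a T0 read at dosing. IC50 came from a four-parameter fit.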

SAS cells = assay: SAS CTG proliferation assay (120 h) (HNSCC, wt amplified); assay type: cell-based
Outline: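 SAS cells plated at 300 per well in DMEM:F12 with 10% FCS and left overnight, then given compounds acoustically. After 120 h exposure, viability read by CellTiter-Glo as percent of DMSO control. IC50 from four-parameter non-linear regression.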

[2] = Metabolic (microsomal) stability assay, human liver microsomes (HLM); assay type: in vitro ADME; settings: predicted clearance as percent of liver blood flow, 1 μM
Outline: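 LC-MS/MS tracked parent disappearance at 0, 5, 15, 30 and 60 min in NADPH-initiated incubations with 1 mg/mL human microsomal protein and 1 μM compound at 37°C, pH 7.5. First-order fits gave intrinsic clearance, which was scaled up and reported as % QH. NADPH-free controls were also run.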

[3] = Solubility measurement (DMSO solution method), McIlvaine buffer pH 4.5 or 6.8; assay type: physicochemical; settings: aqueous buffer, kinetic from dmso stock, DMSO stock diluted to 250 μM, 24 h shaking at ambient temperature
Outline: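 DMSO stock diluted into McIlvaine buffer, pH 4.5 or 6.8, to 250 µM final, shaken 24 h at ambient temperature. Precipitate removed by filtration; filtrate quantified by LC-UV against a fully dissolved reference in acetonitrile/water 1:1.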

[4] = assay 2, CTG, read-out: H358 (assay 2) IC50
[5] = McIlvaine buffer pH 4.5, read-out: solubility pH 4.5
[6] = McIlvaine buffer pH 6.8, read-out: solubility pH 6.8
[7] = assay 1, CTG, read-out: H358 (assay 1) IC50

SMILES | IC50 [1] [nM] | IC50 (NCI-H358 cells; [4]) [nM] | IC50 (SAS cells) [nM] | HLM QH [2] [%] | solubility at 24 h [3, 5] [µg/mL] | solubility at 24 h [3, 6] [µg/mL] | IC50 (NCI-H358 cells; [7]) [nM]
CO[C@H]1CCN(C)[C@@H]1[C@H](C)Oc1cc(N2CCNC3(CC3)C2)nc(-c2onc3c2CCC[C@@]32CCCc3sc(N)c(C#N)c32)n1 [I-49] | 130 | 145 | 905 | 40 | > 154 | 43 (≈ 68.2 µM) | 
C[C@H](Oc1cc(N2CCNC3(CC3)C2)nc(-c2onc3c2CCC[C@@]32CCCc3sc(N)c(C#N)c32)n1)[C@@H]1C[C@@H](F)CN1C [I-45] | 280 | 470 | 1190 | 45 | > 148 | > 86 | 
CO[C@@H]1C[C@@H]([C@H](C)Oc2cc(N3CCN(C)C4(CC4)C3)nc(-c3onc4c3CCC[C@@]43CCCc4sc(N)c(C#N)c43)n2)N(C)C1 [I-50] | 448 | 733 | 2900 | 44 | > 139 | 95 (≈ 147 µM) | 
C[C@H](Oc1cc(N2CCNC3(CCC3)C2)nc(-c2onc3c2CCC[C@@]32CCCc3sc(N)c(C#N)c32)n1)[C@@H]1CCCN1C [I-3] | 345 | 1320 | 4890 | <24 | > 173 | > 176 | 
C[C@H](Oc1cc(-n2ccc(C(=O)N3CCCC3)n2)nc(-c2noc3c2CCC[C@@]32CCCc3sc(N)c(C#N)c32)n1)[C@@H]1CCCN1C [II-19] | 5 | 2 | 132 | 30 | 89 (≈ 136 µM) | < 1 | 17
C[C@H](Oc1cc(-n2ccnc2)nc(-c2onc3c2CCC[C@@]32CCCc3sc(N)c(C#N)c32)n1)[C@@H]1CCCN1C [I-20] | 14 | 287 | 35 | 30 | > 157 | 98 (≈ 176 µM) | 
CCOC(=O)c1ccn(-c2cc(O[C@@H](C)[C@@H]3CCCN3C)nc(-c3noc4c3CCC[C@@]43CCCc4sc(N)c(C#N)c43)n2)n1 [II-23] | 8 | 4 | 222 | <24 | 75 (≈ 119 µM) | < 1 | 
C[C@H](Oc1cc(Cl)nc(-c2onc3c2CCC[C@@]32CCCc3sc(N)c(C#N)c32)n1)[C@@H]1CCCN1C [I-1] | 77 | 577 | 2880 | 79 | > 125 | 101 (≈ 192 µM) | 
CO[C@H]1CCN(C)[C@@H]1[C@H](C)Oc1cc(-n2ccc(C(=O)N[C@H]3CCOC3)n2)nc(-c2onc3c2CCC[C@@]32CCCc3sc(N)c(C#N)c32)n1 [I-54] | 1 | 4 | 17 | 52 | 16 (≈ 22.9 µM) | < 1 | 
C[C@H](Oc1cc(N2CCNC3(CCCC3)C2)nc(-c2noc3c2CCC[C@@]32CCCc3sc(N)c(C#N)c32)n1)[C@@H]1CCCN1C [II-41] | 490 | 1520 | 2110 | <24 | > 138 | > 130 | 
C[C@H](Oc1cc(-n2ccc(C(N)=O)n2)nc(-c2noc3c2CCC[C@@]32CCCc3sc(N)c(C#N)c32)n1)[C@@H]1CCCN1C [II-21] | 4 | 4 | 35 | <24 | 80 (≈ 133 µM) | 34 (≈ 56.7 µM) | 10
C[C@H](Oc1cc(-c2ccn([C@H]3CCCOC3)n2)nc(-c2noc3c2CCC[C@@]32CCCc3sc(N)c(C#N)c32)n1)[C@@H]1CCCN1C [II-42] | 34 | 136 | 264 | <24 | 119 (≈ 186 µM) | 9 (≈ 14 µM) | 
C[C@H](Oc1cc(-n2nccn2)nc(-c2onc3c2CCC[C@@]32CCCc3sc(N)c(C#N)c32)n1)[C@@H]1CCCN1C [I-29] | 18 | 2760 | 97 | 27 | > 114 | 82 (≈ 147 µM) | 
CO[C@@H]1C[C@@H]([C@H](C)Oc2cc(-c3ccn(C)n3)nc(-c3onc4c3CCC[C@@]43CCCc4sc(N)c(C#N)c43)n2)N(C)C1 [I-23] | 10 |  | 24 | 45 | 106 (≈ 176 µM) | < 1 | 1
C[C@H](Oc1cc(N2C[C@@H](N(C)C)[C@@H](O)C2)nc(-c2noc3c2CCC[C@@]32CCCc3sc(N)c(C#N)c32)n1)[C@@H]1CCCN1C [II-10] | 844 | 570 | 3540 | <24 | > 143 | > 135 | 
Cc1nc(-c2cc(O[C@@H](C)[C@@H]3CCCN3C)nc(-c3onc4c3CCC[C@@]43CCCc4sc(N)c(C#N)c43)n2)cs1 [I-24] | 9 | 163 | 77 | <24 | 68 (≈ 116 µM) | < 1 | 
C[C@H](Oc1cc([C@@H]2CCOC2)nc(-c2onc3c2CCC[C@@]32CCCc3sc(N)c(C#N)c32)n1)[C@@H]1CCCN1C [I-22] | 9 | 10 | 33 | 37 | 112 (≈ 200 µM) | 104 (≈ 185 µM) | 31
COCCNC(=O)c1ccn(-c2cc(O[C@@H](C)[C@@H]3[C@@H](OC)CCN3C)nc(-c3onc4c3CCC[C@@]43CCCc4sc(N)c(C#N)c43)n2)n1 [I-55] | 2 | 5 | 10 | 56 | > 162 | 5 (≈ 7.27 µM) | 
C[C@H](Oc1cc(-n2ccnn2)nc(-c2onc3c2CCC[C@@]32CCCc3sc(N)c(C#N)c32)n1)[C@@H]1CCCN1C [I-32] | 3 | 303 | 52 | 45 | 100 (≈ 179 µM) | 14 (≈ 25.1 µM) | 
C[C@H](O)Cn1ccc(-c2cc(O[C@@H](C)[C@@H]3CCCN3C)nc(-c3onc4c3CCC[C@@]43CCCc4sc(N)c(C#N)c43)n2)n1 [I-31] | 9 | 266 | 57 | <24 | > 128 | 118 (≈ 192 µM) | 
C[C@H](Oc1cc(N2CCC(N(C)C)CC2)nc(-c2noc3c2CCC[C@@]32CCCc3sc(N)c(C#N)c32)n1)[C@@H]1CCCN1C [II-48] | 724 | 2160 | 3880 | <24 | > 164 | > 149 | 
Cc1ccc(-c2cc(O[C@@H](C)[C@@H]3CCCN3C)nc(-c3onc4c3CCC[C@@]43CCCc4sc(N)c(C#N)c43)n2)cn1 [I-28] | 67 | 240 | 934 | <24 | 93 (≈ 160 µM) | 8 (≈ 13.8 µM) | 
